This is an account of results in ChEMBL document CHEMBL1138582, “5-Aminopyrimidin-2-ylnitriles as cathepsin K inhibitors” (Bioorg Med Chem Lett, 2009).

One data set concerns the target Procathepsin L (Homo sapiens, UniProt P07711). As to the kind of experiment: Inhibition of cathepsin L.
A further data set deals with T1, Cathepsin K (Homo sapiens, UniProt P43235).
T1 sequence (P43235 whole entry): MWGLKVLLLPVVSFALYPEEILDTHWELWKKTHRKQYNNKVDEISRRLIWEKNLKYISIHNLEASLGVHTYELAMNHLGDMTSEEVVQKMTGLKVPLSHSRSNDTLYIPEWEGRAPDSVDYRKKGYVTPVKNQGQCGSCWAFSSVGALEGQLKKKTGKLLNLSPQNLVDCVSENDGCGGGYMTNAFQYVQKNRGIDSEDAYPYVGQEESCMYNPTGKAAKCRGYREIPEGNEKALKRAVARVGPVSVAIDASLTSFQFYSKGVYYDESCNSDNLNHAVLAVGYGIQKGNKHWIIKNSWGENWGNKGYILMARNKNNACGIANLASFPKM
Put plainly: Inhibition of cathepsin K.

The next data set deals with Cathepsin S (Homo sapiens, UniProt P25774). As to the kind of experiment: Inhibition of cathepsin S.
The nature of data set [1]: Electrophilicity, glutathione reactivity assessed as half life. The data set is classed as physicochemical. More on the design: unit not given here.
A further data set concerns the target Cathepsin B (Homo sapiens, UniProt P07858). Put plainly: Inhibition of cathepsin B.

Chain of Cathepsin S (P25774 whole entry): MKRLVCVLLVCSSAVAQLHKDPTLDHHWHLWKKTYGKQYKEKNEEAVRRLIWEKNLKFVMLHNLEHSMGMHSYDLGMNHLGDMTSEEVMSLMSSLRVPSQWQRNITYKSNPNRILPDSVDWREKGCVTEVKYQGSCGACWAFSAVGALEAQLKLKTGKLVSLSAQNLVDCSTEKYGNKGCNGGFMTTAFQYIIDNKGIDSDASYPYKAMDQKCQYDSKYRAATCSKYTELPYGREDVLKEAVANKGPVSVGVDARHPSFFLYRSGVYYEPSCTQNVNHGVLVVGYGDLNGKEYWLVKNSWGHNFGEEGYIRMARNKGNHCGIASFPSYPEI
Chain of Procathepsin L (P07711 whole entry): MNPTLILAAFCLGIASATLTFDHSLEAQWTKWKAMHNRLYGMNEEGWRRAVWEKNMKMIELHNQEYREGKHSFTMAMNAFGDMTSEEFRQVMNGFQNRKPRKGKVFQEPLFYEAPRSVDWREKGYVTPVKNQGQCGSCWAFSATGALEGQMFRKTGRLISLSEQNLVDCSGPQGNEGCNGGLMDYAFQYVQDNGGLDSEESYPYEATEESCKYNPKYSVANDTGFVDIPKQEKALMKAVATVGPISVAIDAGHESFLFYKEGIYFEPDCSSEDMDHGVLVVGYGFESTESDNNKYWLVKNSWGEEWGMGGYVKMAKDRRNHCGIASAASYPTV

For the molecule `CC(C)CNc1nc(C#N)nc(N2CCOCC2)c1N`, the IC50 at Procathepsin L came out at 2 µM; against Cathepsin K, 0.018 µM; against Cathepsin S it was 0.56 µM. For the molecule `N#Cc1nc(N2CCCC2)c(N)c(N2CCOCC2)n1`, the IC50 against Cathepsin K turned out to be 0.06 µM. Still for that read-out and setting: the value for `N#Cc1nc(NC2CC3CCC2C3)c(N)c(N2CCOCC2)n1` (configuration not stated) was 0.002 µM. The same measure, in the same setting: the value for `CCC(C)Nc1nc(C#N)nc(N2CCOCC2)c1N` (configuration not stated) was 0.3 µM; that for `N#Cc1nc(NC2CCCCC2)c(N)c(N2CCOCC2)n1` was 0.023 µM. For `CNc1nc(C#N)nc(N(C)C)c1[N+](=O)[O-]`, the logt1/2 in data set [1] was < 2.08.

In turn, `CC(C)CNc1nc(C#N)nc(N2CC(O)C2)c1N` yielded an IC50 at Cathepsin K of 0.032 µM. With `CNc1cc(N(C)C)nc(C#N)n1`, the logt1/2 in data set [1] came to 2.67.

Consider `CC(C)(C)CNc1nc(C#N)nc(N2CCOCC2)c1N`, for which the IC50 is > 10 µM on Cathepsin B, > 10 µM against Procathepsin L, 0.017 µM against Cathepsin K and 0.91 µM on Cathepsin S.

Regarding `N#Cc1nc(NC2CCOC2)c(N)c(N2CCOCC2)n1` (configuration not stated), at Cathepsin K, the IC50 is 0.34 µM. The same measure, in the same setting: the value for `CC(C)CNc1nc(C#N)nc(NCc2nnn[nH]2)c1N` was 0.062 µM.

`COc1c(Nc2ccccc2)nc(C#N)nc1N(C)C`: the logt1/2 in data set [1] worked out at 2.31.

For the molecule `COCCNc1nc(C#N)nc(NCC(C)C)c1N`, the concentration for half-maximal inhibition (IC50) at Cathepsin K was 0.024 µM. Same read-out and setting: the value for `N#Cc1nc(NC2CCCC2)c(N)c(N2CCOCC2)n1` was 0.013 µM. On the same count and under the same terms, the value for `CC(C)Nc1nc(C#N)nc(N2CCOCC2)c1N` was 0.56 µM; that for `N#Cc1nc(Nc2ccccc2)c(N)c(N2CCOCC2)n1` was 0.11 µM. As to `CN(C)c1cc(N(C)C)nc(C#N)n1`, the logt1/2 in data set [1] is 2.56.

For the molecule `CC(C)CNc1nc(C#N)nc(N2CCNCC2)c1N`, the half-inhibitory concentration (IC50) against Cathepsin B was 6.1 µM; against Procathepsin L it was 1.4 µM; against Cathepsin K it was 0.006 µM; against Cathepsin S it was 0.89 µM. With `CN(C)c1nc(C#N)nc(Nc2ccccc2)c1N`, the logt1/2 in data set [1] was determined as 3. Same read-out and setting: the value for `CN(C)c1nc(C#N)nc(Nc2ccccc2)n1` was 2.07. `CC(C)CNc1nc(C#N)nc(NC2CCS(=O)(=O)C2)c1N` (configuration not stated) showed an IC50 against Cathepsin K of 0.014 µM. `CNc1c(Nc2ccccc2)nc(C#N)nc1N(C)C`: the logt1/2 in data set [1] was found to be 2.91. Take `CNc1nc(C#N)nc(N(C)C)c1Br`: the logt1/2 in data set [1] is recorded as 2.19.

On Cathepsin K, `CC(=O)N1CCN(c2nc(C#N)nc(NCC(C)C)c2N)CC1` gave an IC50 of 0.009 µM.

As to `N#Cc1nc(N2CCCCC2)c(N)c(N2CCOCC2)n1`, at Cathepsin K, half-maximal inhibition (IC50) was put at 0.022 µM. Take `CNc1nc(C#N)nc(N(C)C)c1N`: the logt1/2 in data set [1] was determined as 3.38. The same measure, in the same setting: the value for `CN(C)c1nc(C#N)nc(Oc2ccccc2)c1N` was 2.98. Take `CN(C)c1cc(Nc2ccccc2)nc(C#N)n1`: the logt1/2 in data set [1] came out at 2.12. As to `CN(C)c1nc(C#N)nc(N(C)C)c1N`, the logt1/2 in data set [1] is recorded as 3.26.

As usually defined, the IC50 is the concentration needed to halve the response being measured.
